According to patent publication US12453349B2, “Compositions comprising pyridine carboxylate herbicides and 4-hydroxyphenyl-pyruvate dioxygenase (HPPD) inhibitor herbicides” (Corteva Agriscience LLC, priority 2018, dated 2025):
Where “and” joins values, the source holds several entries; their conditions need not be identical. Equal values may be shown once.

Assays:
Type in all cases: in vivo
[1] = test system: CHEAL, Chenopodium album L. (common lambsquarters); experiment: Greenhouse postemergence herbicidal effect, visual injury 20-22 d after application
Source text: (§1) Seeds of the desired test plant species were planted in a 90:10% v/v (volume/volume) mixture of PRO-MIX® BX (Premier Tech Horticulture, Quakertown, PA, USA) and PROFILE® GREENS GRADE™ (Profile Products LLC, Buffalo Grove, IL, USA) planting mixture, which typically has a pH of 5.2 to 6.2 and an organic matter content of at least 50 percent, in plastic pots with a surface area of 103.2 square centimeters (cm^2). In some aspects, to help ensure good germination and healthy plants, a fungicide treatment and/or other chemical or physical treatment was applied. The plants were grown for 7-36 days (d) in a greenhouse with an approximate 14-hour (h) photoperiod which was maintained at about 23° C. during the day and 22° C. during the night. Nutrients and water were added on a regular basis and supplemental lighting was provided with overhead metal halide 1000-Watt lamps as necessary. The plants were employed for testing when they reached the second or third true leaf stage.
(§2) Emulsifiable concentrates of each of each pyridine carboxylate herbicide (Compound A or Compound B) were prepared at 100 grams acid equivalent per liter (g ae/L). The emulsifiable concentrates also included a safener, cloquintocet mexyl, at 120 grams active ingredient per liter (g ai/L). An aliquot of each emulsifiable concentrate was placed in a 25 mL glass vial and diluted with an aqueous mixture of 1.25% (v/v) ACTIROB® B esterified rapeseed oil (Bayer Crop Science, Research Triangle Park, NC, USA) or MSO® Concentrate with LECI-TECH® methylated soybean oil (Loveland Products, Loveland, CO, USA) to obtain concentrated stock solutions at the highest application rate for each herbicide, based upon a 12 milliliter (mL) application volume at a rate of 187 liters per hectare (L/ha). The concentrated stock solutions were further diluted with an aqueous mixture of 1.25% v/v ACTIROB® B or MSO® Concentrate with LECI-TECH® to obtain stock solutions at reduced application rates for each herbicide. Spray solutions of the herbicide combinations (Compound A or Compound B plus HPPD inhibitor herbicide) were prepared by adding weighed amounts or aliquots of the HPPD inhibitor herbicides to the stock solutions of Compound A or Compound B to form 12-mL spray solutions in two-way combinations.
(§3) The spray solutions were applied to the plant material with an overhead Mandel track sprayer equipped with 8002E nozzles calibrated to deliver 187 L/ha over an application area of 0.503 square meters (m^2) at a spray height of 18 inches (43 centimeters (cm)) above the average plant canopy. Control plants were sprayed in the same manner with the solvent blank. All pyridine carboxylate herbicide (component a) application rates are given as “g ae/ha” and all HPPD inhibitor herbicide (component b) application rates are given as “g ai/ha.”
(§4) The treated plants and control plants were placed in a greenhouse as described above and watered by sub-irrigation to prevent wash-off of the test compounds. After 20-22 d, the condition of the test plants as compared with that of the control plants was determined visually and scored on a scale of 0 to 100 percent where 0 corresponds to no injury and 100 corresponds to complete kill.

[2] = test system: SETFA, Setaria faberi (giant foxtail); experiment: as above
Source text: as §1, §2, §3, §4

[3] = test system: EPHHL, Euphorbia heterophylla (poinsettia); experiment: as above
Source text: as §1, §2, §3, §4

[4] = test system: MATCH, Matricaria chamomilla (wild chamomile); experiment: as above
Source text: as §1, §2, §3, §4

[5] = test system: BRSNW, Brassica napus (winter rape); experiment: as above
Source text: as §1, §2, §3, §4

[6] = test system: SINAR, Sinapis arvensis (wild mustard); experiment: as above
Source text: as §1, §2, §3, §4

[7] = test system: BRSNN, Brassica napus (spring rape); experiment: as above; conditions: Compound A 10 g ae/ha
Source text: as §1, §2, §3, §4

[8] = test system: AMARE, Amaranthus retroflexus (pigweed); experiment: as above
Source text: as §1, §2, §3, §4

[9] = test system: SASKR, Salsola kali (Russian thistle); experiment: as above
Source text: as §1, §2, §3, §4

[10] = test system: DIGSA, Digitaria sanguinalis (large crabgrass); experiment: as above
Source text: as §1, §2, §3, §4

[11] = test system: STEME, Stellaria media (chickweed); experiment: as above
Source text: as §1, §2, §3, §4

[12] = test system: POLCO, Polygonum convolvulus (wild buckwheat); experiment: as above; conditions: Compound A 10 g ae/ha
Source text: as §1, §2, §3, §4

[13] = test system: ABUTH, Abutilon theophrasti (velvetleaf); experiment: as above
Source text: as §1, §2, §3, §4

[14] = test system: LOLMU, Lolium multiflorum (Italian ryegrass); experiment: as above
Source text: as §1, §2, §3, §4

[15] = test system: VIOTR, Viola tricolor (wild pansy); experiment: as above
Source text: as §1, §2, §3, §4

[16] = test system: HELAN, Helianthus annuus (common sunflower); experiment: as above
Source text: as §1, §2, §3, §4

[17] = test system: ECHCG, Echinochloa crus-galli (barnyard grass); experiment: as above
Source text: as §1, §2, §3, §4

[18] = test system: KCHSC, Kochia scoparia (kochia); experiment: as above; conditions: Bassia scoparia, post-emergence, KCHSC, read-out: % visual injury Obs
Source text: as §1, §2, §3, §4

[19] = test system: IPOHE, Ipomoea hederacea (ivyleaf morningglory); experiment: as above
Source text: as §1, §2, §3, §4

[20] = test system: TRZAS, Triticum aestivum (spring wheat); experiment: Greenhouse postemergence phytotoxicity on crop, visual injury 20-22 d after application
Source text: as §1, §2, §3, §4

[21] = test system: HORVS, Hordeum vulgare (spring barley); experiment: as above
Source text: as §1, §2, §3, §4

For `N#CCOC(=O)c1nc(-c2ccc3cc[nH]c3c2F)c(F)c(N)c1Cl` [Compound A, cyanomethyl 4-amino-3-chloro-5-fluoro-6-(7-fluoro-1H-indol-6-yl)pyridine-2-carboxylate], the “% visual injury Obs” value ([1]; Compound A 7.5 g ae/ha) was 75% and 70%, the “% visual injury Obs” value ([1]; Compound A 10 g ae/ha) was 80% and 78% and the “% visual injury Obs” value ([2]; Compound A 7.5 g ae/ha) was 60%. The “% visual injury Obs” value ([2]; Compound A 10 g ae/ha) was 78%, the “% visual injury Obs” value ([3]; Compound A 7.5 g ae/ha) was 91% and the “% visual injury Obs” value ([3]; Compound A 10 g ae/ha) was 83%. For the same molecule, the “% visual injury Obs” value ([4]; Compound A 7.5 g ae/ha) was 10% and 18%, the “% visual injury Obs” value ([4]; Compound A 10 g ae/ha) was 20% and 30% and the “% visual injury Obs” value ([5]; Compound A 7.5 g ae/ha) was 35% and 63%. For the same molecule, the “% visual injury Obs” value ([5]; Compound A 10 g ae/ha) was 40% and 68%, the “% visual injury Obs” value ([6]; Compound A 7.5 g ae/ha) was 83% and 85% and the “% visual injury Obs” value ([6]; Compound A 10 g ae/ha) was 88%. The “% visual injury Obs” value [7] was 45% and 60%, the “% visual injury Obs” value ([8]; Compound A 7.5 g ae/ha) was 80% and 90% and 70% and the “% visual injury Obs” value ([8]; Compound A 10 g ae/ha) was 85% and 90%. For the same molecule, the “% visual injury Obs” value ([9]; Compound A 7.5 g ae/ha) was 60%, the “% visual injury Obs” value ([9]; Compound A 10 g ae/ha) was 63% and the “% visual injury Obs” value ([10]; Compound A 7.5 g ae/ha) was 13%. For the same molecule, the “% visual injury Obs” value ([10]; Compound A 10 g ae/ha) was 25%, the “% visual injury Obs” value ([11]; Compound A 7.5 g ae/ha) was 90% and the “% visual injury Obs” value ([11]; Compound A 10 g ae/ha) was 85%. For the same molecule, the “% visual injury Obs” value [12] was 70% and 43%, the “% visual injury Obs” value ([13]; Compound A 7.5 g ae/ha) was 40% and the “% visual injury Obs” value ([13]; Compound A 10 g ae/ha) was 48%. For the same molecule, the “% visual injury Obs” value ([14]; Compound A 7.5 g ae/ha) was 8%, the “% visual injury Obs” value ([14]; Compound A 10 g ae/ha) was 3% and the “% visual injury Obs” value ([15]; Compound A 7.5 g ae/ha) was 3%. The “% visual injury Obs” value ([15]; Compound A 10 g ae/ha) was 3%, the “% visual injury Obs” value ([16]; Compound A 7.5 g ae/ha) was 83% and the “% visual injury Obs” value ([16]; Compound A 10 g ae/ha) was 88%. The “% visual injury Obs” value ([17]; Compound A 7.5 g ae/ha) was 80%, the “% visual injury Obs” value ([17]; Compound A 10 g ae/ha) was 88% and the pest or weed control at 7.5 g/ha ([18]; Compound A 7.5 g ae/ha) was 63%. For the same molecule, the pest or weed control at 10 g/ha ([18]; Compound A 10 g ae/ha) was 70%, the “% visual injury Obs” value ([19]; Compound A 7.5 g ae/ha) was 5% and the “% visual injury Obs” value ([19]; Compound A 10 g ae/ha) was 0%. For the same molecule, the “% visual injury Obs” value ([20]; Compound A 7.5 g ae/ha) was 0%, the “% visual injury Obs” value ([20]; Compound A 10 g ae/ha) was 0% and the “% visual injury Obs” value ([21]; Compound A 7.5 g ae/ha) was 8% and 0%. For the same molecule, the “% visual injury Obs” value ([21]; Compound A 10 g ae/ha) was 0%.
